{"source": "patent US6559158B1", "about": "“Use of methylnaltrexone and related compounds to treat chronic opioid use side affects” (UR Labs, Inc., priority 1997, dated 2003)", "tested_on": "morphine-induced changes in oral-cecal transit time", "assay": "Example 4: morphine-induced delay of oral-cecal transit time in subjects given opioids non-chronically", "assay_type": "in vivo, human", "settings": "placebo plus 0.05 mg/kg morphine, 12 subjects, mean±SD; baseline 104.6±31.1; p<0.01", "protocol": "Sessions were separated by at least 1 week. Each session lasted approximately 7 hours, and the subjects received one of three injections: (1) placebo plus placebo, (2) placebo plus 0.05 mg/kg morphine, or (3) 0.45 mg/kg methylnaltrexone plus 0.05 mg/kg morphine. Injection I was given at the first session, and the subjects were blinded to the medication. Injections 2 and 3 were given in a random order, and the subjects and observers were blinded to the medication. Injection assignments were prepared by random selection on a computer and were sealed in envelopes.\nAfter completion of the above three injections, we asked six of the subjects, beginning with those who had completed the study last, to return for a fourth injection (0.45 mg/kg methylnaltrexone plus 0.1 mg/kg morphine). This was done to evaluate the effects of methylnaltrexone with a higher does of morphine.\nResults of the hydrogen breath test after different injections were analyzed with the use of the Wilcoxon matched-pairs signed-rank test, with p<0.05 considered to be statistically significant.", "data": [{"smiles": "CN1CC[C@]23c4c5ccc(O)c4O[C@H]2[C@@H](O)C=C[C@H]3[C@H]1C5.O=S(=O)(O)O", "note": "[Morphine, morphine sulfate]", "values": [{"measurement": "oral-cecal transit time", "value": "163.3 ± 39.8", "unit": "min"}]}]}
